# Laboratory results as given in ChEMBL document CHEMBL1141760, “Polyhydroxylated spirostanol saponins from the tubers of Dioscorea polygonoides” (J Nat Prod, 2005).
# Assays:
# [1] = tested on: HSC-2; assay: Cytotoxicity against human HSC2 cells by MTT assay; format: functional, cell-based
# [2] = tested on: HL-60; assay: Cytotoxicity against human HL60 cells by MTT assay; format: functional, cell-based
Compound,IC50 [1] [µM],IC50 [2] [µM]
C[C@@H]1O[C@@H](O[C@H]2[C@H](O[C@H]3CC[C@@]4(C)C(=CC[C@H]5[C@@H]6C[C@@H]7O[C@@]8(OC[C@H](C)[C@@H](O)[C@@H]8O)[C@@H](C)[C@@H]7[C@@]6(C)CC[C@@H]54)C3)O[C@H](CO)[C@@H](O)[C@@H]2O)[C@H](O)[C@H](O)[C@H]1O,> 200,> 200
C[C@H]1CO[C@@]2(O[C@H]3C[C@H]4[C@@H]5CC=C6C[C@@H](O[C@@H]7O[C@H](CO)[C@@H](O)[C@H](O)[C@H]7O[C@@H]7O[C@@H](C)[C@H](O)[C@@H](O)[C@H]7O)CC[C@]6(C)[C@H]5C[C@H](O)[C@]4(C)[C@@]3(O)[C@@H]2C)[C@@H](O)C1,> 200,> 200
C[C@H]1CO[C@@]2(O[C@H]3C[C@@]4(O)[C@@H]5CC=C6C[C@@H](O)CC[C@]6(C)[C@H]5CC[C@]4(C)[C@@]3(O)[C@@H]2C)[C@@H](O)C1,> 200,> 200
C[C@H]1CO[C@@]2(O[C@H]3C[C@@]4(O)[C@@H]5CC=C6C[C@@H](O[C@@H]7O[C@H](CO)[C@@H](O)[C@H](O)[C@H]7O[C@@H]7O[C@@H](C)[C@H](O)[C@@H](O)[C@H]7O)CC[C@]6(C)[C@H]5CC[C@]4(C)[C@@]3(O)[C@@H]2C)[C@@H](O)C1,> 200,> 200
C[C@H]1CO[C@@]2(O[C@H]3C[C@H]4[C@@H]5CC=C6C[C@@H](O)CC[C@]6(C)[C@H]5C[C@H](O)[C@]4(C)[C@@]3(O)[C@@H]2C)[C@@H](O)C1,> 200,> 200
